Assay results published in patent publication US20250032523A1, “ACTIVE HUMAN MILK OLIGOSACCHARIDE PREPARATION WITH ALLERGY-ALLEVIATING FUNCTION, AND USE THEREOF” (Zhejiang Gongshang University, priority 2023, published 2025).
Entries after “also recorded” stand apart in the source; their conditions may differ.

Columns and labels:
[1] = system: mouse bone marrow-derived DC line DC2.4; assay: Immune cell allergy model: RT-qPCR of allergy-associated genes in OVA-stimulated DC2.4 cells; assay type: cell-based; conditions: HMO preparation at final concentration 100 μg/mL, versus sensitization group
Experimental: (§1) In a fourth aspect, the present disclosure also provides a use of the active HMO preparation in construction of an immune cell allergy model, where the construction method of the immune cell allergy model includes the following steps: • (1) taking a cryopreserved mouse bone marrow-derived dendritic cell (DC) line DC2.4, and subjecting the cryopreserved mouse bone marrow-derived DC line DC2.4 to recovery, activation, and subculture in an incubator (37° C. and 5% CO2); • (2) sacrificing a Balb/c female mouse through cervical dislocation, collecting a spleen in a clean bench, subjecting the spleen to grinding, red blood cell lysis, washing, and re-suspension with a cell culture medium to obtain a mouse spleen single-cell suspension, and purifying T cells from the spleen single-cell suspension through magnetic bead separation; • (3) inoculating the cells in a 12-well cell culture plate, dividing the cells into a control group, a sensitization group, and an intervention group with 3 biological replicates for each group, and culturing the cells in an incubator (37° C. and 5% CO2); and • (4) extracting total RNA from cells, and detecting an RNA concentration with a nucleoprotein concentration meter for follow-up experiments; and reverse-transcribing the extracted RNA immediately into cDNA, conducting quantitative reverse transcription polymerase chain reaction (RT-qPCR), and with β-actin as an internal reference gene, calculating a relative expression level of a target gene by a 2^−ΔΔCt method.
(§2) In the present disclosure, an effect of the preparation is verified. When the immune cell allergy model is constructed, a sensitinogen used is ovalbumin (OVA), and relative expression levels of genes for a pro-inflammatory factor OX40L, an anti-inflammatory factor IL-10, a Th2-type cytokine IL-5, a Th1-type associated cytokine T-bet, a Th2-type cytokine IL-4, and a Th1-type associated cytokine IFN-γ are calculated.
(1) A cryopreserved mouse bone marrow-derived DC line DC2.4 was taken and subjected to recovery, activation, and subculture, and cells of generation 4 to 6 with a strong activity were selected for the experiment.
(3) The cells were divided into 4 groups with 3 replicates for each group, including a control group, a sensitization group, an HMO preparation intervention group 1 (Example 1), and an HMO preparation intervention group 2 (Example 2). In the HMO preparation intervention groups, an HMO preparation was added at a final concentration of 100 μg/mL to cells, and the cells were cultured in an incubator (37° C. and 5% CO2).
(§3) (4) Total RNA was extracted from cells and reverse-transcribed into cDNA, and an expression level of an allergy-associated gene in the cells was detected by RT-qPCR. […]

[2] = system: purified T cells from mouse spleen; assay: Immune cell allergy model: RT-qPCR of allergy-associated genes in OVA-stimulated purified T cells from mouse spleen; assay type: cell-based; conditions: HMO preparation at final concentration 100 μg/mL, versus sensitization group
Experimental: as §1, §2
(2) An SPF grade Balb/c female mouse was sacrificed through cervical dislocation and dissected under sterile conditions, a spleen tissue was collected and subjected to grinding, red blood cell lysis, washing, and re-suspension with an RPMI-1640 medium to prepare a mouse spleen single-cell suspension, and T cells in the mouse spleen were extracted through magnetic bead separation.
(3) The cells were divided into 4 groups with 3 replicates for each group, including a control group, a sensitization group, an HMO preparation intervention group 1 (Example 1), and an HMO preparation intervention group 2 (Example 2). […]
as §3

food allergy mice = assay: Food allergy mice (OVA sensitization), intragastric HMO preparation, RT-qPCR of spleen tissue; assay type: in vivo, mouse; conditions: OVA-sensitized mice, intragastric administration, versus sensitized mice
From the text: The anti-allergy active HMO preparations of LNFP-I and 2′-FL were intragastrically administered to food allergy mice to alleviate food allergy symptoms.
(1) Mice were intragastrically administered with OVA for sensitization, and then intervened with an HMO preparation intervention group 1 (Example 1) and an HMO preparation intervention group 2 (Example 2), respectively.
(2) The mice were sacrificed through cervical dislocation and dissected under sterile conditions, and spleen tissues were collected and stored in liquid nitrogen.
(3) Total RNA was extracted from each mouse spleen tissue and reverse-transcribed into cDNA, and an expression level of an allergy-associated gene was detected by RT-qPCR.
The anti-allergy active HMO preparations were intragastrically administered in a mass ratio of 1:3 to food allergy mice to alleviate food allergy symptoms.
(1) Mice were intragastrically administered with OVA for sensitization, and then intervened with the anti-allergy active HMO preparation prepared in Example 5 at a mass ratio of 1:3.

| Substance | expression level of the gene for anti-inflammatory factor IL-10 (relative mRNA, RT-qPCR) [1] | expression level of the gene for pro-inflammatory factor OX40L (relative mRNA, RT-qPCR) [1] | expression level of the gene for Th1-type associated cytokine T-bet (relative mRNA, RT-qPCR) [2] | expression level of the gene for Th2-type cytokine IL-5 (relative mRNA, RT-qPCR) [2] | expression level of the gene for Th1-type associated cytokine IFN-γ in spleen (relative mRNA, RT-qPCR) (food allergy mice) | expression level of the gene for Th2-type cytokine IL-4 in spleen (relative mRNA, RT-qPCR) (food allergy mice) |
| --- | --- | --- | --- | --- | --- | --- |
| 2′-fucosyllactose [intervention group 2] | significantly stimulate an expression level of a gene for IL-10 to further increase | can be reduced | significantly stimulate an expression level of the gene for T-bet to increase | decreases to some degree | greatly stimulate an expression level of the gene for IFN-γ to further increase | decrease significantly |
| lacto-N-fucopentaose I [intervention group 1] | significantly stimulate an expression level of a gene for IL-10 to further increase; also recorded: increases more than an expression level of the gene for IL-10 in the intervention group 2 | can be reduced | significantly stimulate an expression level of the gene for T-bet to increase; also recorded: increases more significantly than an expression level of the gene for T-bet in the intervention group 2 | decreases slightly | significantly stimulate an expression level of the gene for IFN-γ to further increase | does not change significantly |
